# Measurements reported in patent US20080064667A1, “OXAZOLE DERIVATIVES OF TETRACYCLINES” (Wyeth, priority 2003, published 2008).
# Key:
# Test in all cases: MIC, broth microdilution (NCCLS)
# Format in all cases: cell-based
# [1] = test system: E. coli GC2203 (ATCC Control); conditions: Escherichia coli, Mueller-Hinton II broth, 18-22 hours at 35° C.
# Procedure: (§1) Methods for in Vitro Antibacterial Evaluation
# (§2) The Minimum Inhibitory Concentration (MIC)
# (§3) Antimicrobial susceptibility testing. The in vitro activities of the antibiotics are determined by the broth microdilution method as recommended by the National Committee for Clinical Laboratory Standards (NCCLS) (1). Mueller-Hinton II broth (MHBII)(BBL Cockeysville, Md.) is the medium employed in the testing procedures. Microtiter plates containing serial dilutions of each antimicrobial agent are inoculated with each organism to yield the appropriate density (10^5 CFU/ml) in a 100 μl final volume. The plates are incubated for 18-22 hours at 35° C. in ambient air.
# (§4) 1. NCCLS. 2000. Methods for Dilution Antimicrobial Susceptibility Tests for Bacteria That Grow Aerobically; Approved Standards: M7-A5, vol. 20. National Committe for Clinical Laboratory Standards, Wayne, Pa.
# [2] = test system: C. albicans GC3066 ATCC (Control); conditions: Candida albicans, Mueller-Hinton II broth, 18-22 hours at 35° C.
# Procedure: as §1, §2, §3, §4
# [3] = test system: E. faecalis GC4555 (ATCC Control); conditions: Enterococcus faecalis, Mueller-Hinton II broth, 18-22 hours at 35° C.
# Procedure: as §1, §2, §3, §4
# E. coli GC2270 (tet(M)) = conditions: Escherichia coli
# Procedure: as §1, §2, §3, §4
# [4] = test system: S. pneumoniae* GC4465 (Clinical); conditions: Streptococcus pneumoniae, Mueller-Hinton II broth, 18-22 hours at 35° C.
# Procedure: as §1, §2, §3, §4
# [5] = test system: S. pyogenes* GC4563 (Clinical); conditions: Streptococcus pyogenes, Mueller-Hinton II broth, 18-22 hours at 35° C.
# Procedure: as §1, §2, §3, §4
# [6] = test system: E. coli GC4560 (IMP mutant); conditions: Escherichia coli
# Procedure: as §1, §2, §3, §4
# [7] = test system: S. aureus GC1079 (tet(K)); conditions: Staphylococcus aureus, Mueller-Hinton II broth, 18-22 hours at 35° C.
# Procedure: as §1, §2, §3, §4
# E. coli GC1073 (tet(B)) = conditions: Escherichia coli
# Procedure: as §1, §2, §3, §4
# [8] = test system: S. aureus GC4536 (Smith MP -In Vivo); conditions: Staphylococcus aureus, Mueller-Hinton II broth, 18-22 hours at 35° C.
# Procedure: as §1, §2, §3, §4
# [9] = test system: E. faecalis GC2242 (Van-resistant); conditions: Enterococcus faecalis, Mueller-Hinton II broth, 18-22 hours at 35° C.
# Procedure: as §1, §2, §3, §4
# [10] = test system: S. aureus GC2216 (ATCC Control); conditions: Staphylococcus aureus, Mueller-Hinton II broth, 18-22 hours at 35° C.
# Procedure: as §1, §2, §3, §4
# [11] = test system: E. coli GC4559 (parent GC4560); conditions: Escherichia coli, Mueller-Hinton II broth, 18-22 hours at 35° C.
# Procedure: as §1, §2, §3, §4
# [12] = test system: H. influenzae<> GC6896 (ATCC Control); conditions: Haemophilus influenzae, Mueller-Hinton II broth, 18-22 hours at 35° C.
# Procedure: as §1, §2, §3, §4
# [13] = test system: S. pneumoniae* GC1894 (Clinical); conditions: Streptococcus pneumoniae, Mueller-Hinton II broth, 18-22 hours at 35° C.
# Procedure: as §1, §2, §3, §4
# [14] = test system: S. aureus GC6466 (tet(M)); conditions: Staphylococcus aureus, Mueller-Hinton II broth, 18-22 hours at 35° C.
# Procedure: as §1, §2, §3, §4
# [15] = test system: S. aureus GC1131 (Clinical); conditions: Staphylococcus aureus, Mueller-Hinton II broth, 18-22 hours at 35° C.
# Procedure: as §1, §2, §3, §4
# [16] = test system: M. catarrhalis* GC6907 (Clinical); conditions: Moraxella catarrhalis, Mueller-Hinton II broth, 18-22 hours at 35° C.
# Procedure: as §1, §2, §3, §4
Structure (SMILES),MIC [1],MIC [2],MIC [3],MIC (E. coli GC2270 (tet(M))),MIC [4],MIC [5],MIC [6],MIC [7],MIC (E. coli GC1073 (tet(B))),MIC [8],MIC [9],MIC [10],MIC [11],MIC [12],MIC [13],MIC [14],MIC [15],MIC [16]
"CN(C)c1cc2nc(-c3ccco3)oc2c2c1C[C@H]1C[C@H]3[C@H](N(C)C)C(O)=C(C(N)=O)C(=O)[C@@]3(O)C(O)=C1C2=O [Example 20, (6aR,7aS,8S,1aS)-5,8-bis(dimethylamino)-2-(2-furyl)-9,11a,1 2-trihydroxy-11,13-dioxo-6,6a,7,7a,8,11,11a,13-octahydrotetraceno[2,1-d][1,3]oxazole-10-carboxamide]",> 64 µg/mL,> 64 µg/mL,64 µg/mL,> 64 µg/mL,> 64 µg/mL,32 µg/mL,32 µg/mL,32 µg/mL,> 64 µg/mL,64 µg/mL,32 µg/mL,32 µg/mL,> 64 µg/mL,> 64 µg/mL,64 µg/mL,32 µg/mL,32 µg/mL,32 µg/mL
"CN(C)c1cc2nc(/C=C/c3ccco3)oc2c2c1C[C@H]1C[C@H]3[C@H](N(C)C)C(O)=C(C(N)=O)C(=O)[C@@]3(O)C(O)=C1C2=O [Example 22, (6aR,7aS,8S,11aS)-5,8-bis(dimethylamino)-2-[(E)-2-(2-furyl)ethenyl]-9,11a,12-trihydroxy-11,13-dioxo-6,6a,7,7a,8,11,11a,13-octahydrotetraceno[2,1-d][1,3]oxazole-10-carboxamide]",> 64 µg/mL,> 64 µg/mL,8 µg/mL,> 64 µg/mL,32 µg/mL,16 µg/mL,8 µg/mL,8 µg/mL,> 64 µg/mL,8 µg/mL,8 µg/mL,8 µg/mL,> 64 µg/mL,> 64 µg/mL,32 µg/mL,8 µg/mL,8 µg/mL,16 µg/mL
"CN(C)c1cc2nc(-c3nccs3)oc2c2c1C[C@H]1C[C@H]3[C@H](N(C)C)C(O)=C(C(N)=O)C(=O)[C@@]3(O)C(O)=C1C2=O [Example 24, (6aR,7aS,8S,11aS)-5,8-bis(dimethylamino)-9,11a,12-trihydroxy-11,13-dioxo-2-(1,3-thiazol-2-yl)-6,6a,7,7a,8,11,11a,13-octahydrotetraceno[2,1-d][1,3]oxazole-10-carboxamide]",> 64 µg/mL,> 64 µg/mL,32 µg/mL,> 64 µg/mL,64 µg/mL,32 µg/mL,32 µg/mL,32 µg/mL,> 64 µg/mL,32 µg/mL,32 µg/mL,64 µg/mL,> 64 µg/mL,> 64 µg/mL,64 µg/mL,32 µg/mL,32 µg/mL,> 64 µg/mL
"CN(C)c1cc2nc(/C=C/c3ccccc3)oc2c2c1C[C@H]1C[C@H]3[C@H](N(C)C)C(O)=C(C(N)=O)C(=O)[C@@]3(O)C(O)=C1C2=O [Example 25, (6aR,7aS,8S,11aS)-5,8-bis(dimethylamino)-9,1a,12-trihydroxy-11,13-dioxo-2-[(E)-2-phenylethenyl]-6,6a,7,7a,8,11,11a,13-octahydrotetraceno[2,1-d][1,3]oxazole-10-carboxamide]",> 64 µg/mL,> 64 µg/mL,8 µg/mL,> 64 µg/mL,32 µg/mL,16 µg/mL,8 µg/mL,4 µg/mL,> 64 µg/mL,8 µg/mL,4 µg/mL,4 µg/mL,> 64 µg/mL,> 64 µg/mL,32 µg/mL,4 µg/mL,8 µg/mL,16 µg/mL
